From ChEMBL document CHEMBL4665903, “Novel Tricyclic Compounds for Treating Bacterial Infection” (ACS Med Chem Lett, 2020)

What was measured:
Format in all cases: functional, organism-based
Staphylococcus aureus = experiment: Antibacterial activity against Staphylococcus aureus ATCC 29213 assessed as bacterial growth inhibition and measured every 20 mins for 16 hrs
Klebsiella pneumoniae = experiment: Antibacterial activity against Klebsiella pneumoniae ATCC 10031 assessed as bacterial growth inhibition and measured every 20 mins for 16 hrs
Acinetobacter baumannii = experiment: Antibacterial activity against Acinetobacter baumannii ATCC 17978 assessed as bacterial growth inhibition and measured every 20 mins for 16 hrs

| SMILES | IC50 (Staphylococcus aureus) | IC50 (Klebsiella pneumoniae) | IC50 (Acinetobacter baumannii) |
| --- | --- | --- | --- |
| CNc1cc(F)c(F)c2c1[nH]c1ncc(-c3cncc(C#N)c3)c(N3CCCC(F)(CN)C3)c12 (stereo not drawn) | 477 nM | < 98 nM | < 98 nM |
| CCNc1cc(F)cc2c1[nH]c1ncc(-c3cncc(C#N)c3)c(N3CC[C@@]4(C[C@H]4N)C3)c12 | 863 nM | < 98 nM | < 98 nM |
| CNc1cc(F)c(F)c2c1[nH]c1ncc(-c3cnc4ccnn4c3)c(N3CC[C@H]4CN(C)C[C@H]43)c12 | 369 nM | < 98 nM | < 98 nM |
| CCNc1cc(F)c(F)c2c1[nH]c1ncc(-c3cnc(OC)nc3)c(N3CCC[C@@H](CN)C3)c12 | 394 nM | < 98 nM | < 98 nM |
| CCNc1cc(F)cc2c1[nH]c1ncc(-c3cncc(C#N)c3)c(N3CCC(F)(CN)C3)c12 (stereo not drawn) | 312 nM | < 98 nM | < 98 nM |
| CNc1cc(F)c(F)c2c1[nH]c1ncc(-c3cnc(OC)nc3)c(N3CC[C@@]4(C[C@@H]4N)C3)c12 | 184 nM | < 98 nM | < 98 nM |
